# Data: ChEMBL document CHEMBL1201862, “PubChem BioAssay data set” (2004)
# The source made the active and inactive calls.
# Tests used:
# [1] = luciferase reporter signal suppression in cells – H4 neuroglioma cells, luminescence, dose response (AID 1990); type: functional, cell-based
# [2] = Luminescence Cell-Based Dose Response HTS to Identify Inhibitors of 5'UTR Stem-Loop Driven Prion Protein mRNA Translation in H4 Neuroglioblastoma Cells. [Related pubchem assays: 1827 (Project Summary), 1813 (Primary HTS)]; type: functional
# [3] = HEK-293T cell viability reduction – luminescence, B-cell screen hits, cytotoxicity control for BCR NF-kB inhibitor project, dose response (AID 489021); type: functional, cell-based;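 note: HEK-293T cells carrying an NF-kB luciferase reporter; cells exposed to compound for about 14 hours before viability readout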
# [4] = alpha-synuclein stem-loop luciferase translation blockers – H4 neuroglioma cells, luminescence, confirmation (AID 1988); type: functional, cell-based
# [5] = target: T1, Protein RecA (Mycobacterium tuberculosis, UniProt P9WHJ3); assay: Fluorescence Cell-Free Homogeneous Dose Retest to Identify Inhibitors of RecA-Intein Splicing Activity. [Related pubchem assays (depositor defined):AID2097, AID2223, AID489010, AID492950]; type: functional
# T1 sequence (P9WHJ3 whole entry): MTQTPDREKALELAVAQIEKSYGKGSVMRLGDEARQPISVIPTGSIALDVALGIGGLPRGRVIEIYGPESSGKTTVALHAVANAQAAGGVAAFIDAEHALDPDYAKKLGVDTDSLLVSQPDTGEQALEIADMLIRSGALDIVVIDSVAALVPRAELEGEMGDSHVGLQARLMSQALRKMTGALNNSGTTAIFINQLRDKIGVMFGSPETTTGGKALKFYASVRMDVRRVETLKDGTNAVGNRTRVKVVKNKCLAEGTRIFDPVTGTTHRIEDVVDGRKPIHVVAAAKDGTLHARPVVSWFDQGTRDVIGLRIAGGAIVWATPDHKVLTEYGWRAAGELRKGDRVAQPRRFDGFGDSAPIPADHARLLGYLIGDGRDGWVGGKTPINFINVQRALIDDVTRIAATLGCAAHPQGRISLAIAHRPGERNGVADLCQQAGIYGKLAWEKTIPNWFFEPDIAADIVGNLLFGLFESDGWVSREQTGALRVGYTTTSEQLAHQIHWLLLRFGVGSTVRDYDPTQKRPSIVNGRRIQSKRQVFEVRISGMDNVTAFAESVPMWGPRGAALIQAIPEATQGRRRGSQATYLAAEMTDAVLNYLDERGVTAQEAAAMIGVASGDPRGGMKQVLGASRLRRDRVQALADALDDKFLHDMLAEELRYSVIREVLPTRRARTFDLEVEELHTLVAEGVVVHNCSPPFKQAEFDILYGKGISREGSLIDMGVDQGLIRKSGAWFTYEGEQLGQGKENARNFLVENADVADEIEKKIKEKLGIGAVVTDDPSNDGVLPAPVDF
# [6] = target: T2, Replicative DNA helicase DnaB (Mycobacterium tuberculosis, UniProt P9WMR3); assay: DnaB intein splicing inhibitors, dose response, biochemical, cell-free fluorescence (AID 449749); type: functional
# T2 sequence (P9WMR3 whole entry): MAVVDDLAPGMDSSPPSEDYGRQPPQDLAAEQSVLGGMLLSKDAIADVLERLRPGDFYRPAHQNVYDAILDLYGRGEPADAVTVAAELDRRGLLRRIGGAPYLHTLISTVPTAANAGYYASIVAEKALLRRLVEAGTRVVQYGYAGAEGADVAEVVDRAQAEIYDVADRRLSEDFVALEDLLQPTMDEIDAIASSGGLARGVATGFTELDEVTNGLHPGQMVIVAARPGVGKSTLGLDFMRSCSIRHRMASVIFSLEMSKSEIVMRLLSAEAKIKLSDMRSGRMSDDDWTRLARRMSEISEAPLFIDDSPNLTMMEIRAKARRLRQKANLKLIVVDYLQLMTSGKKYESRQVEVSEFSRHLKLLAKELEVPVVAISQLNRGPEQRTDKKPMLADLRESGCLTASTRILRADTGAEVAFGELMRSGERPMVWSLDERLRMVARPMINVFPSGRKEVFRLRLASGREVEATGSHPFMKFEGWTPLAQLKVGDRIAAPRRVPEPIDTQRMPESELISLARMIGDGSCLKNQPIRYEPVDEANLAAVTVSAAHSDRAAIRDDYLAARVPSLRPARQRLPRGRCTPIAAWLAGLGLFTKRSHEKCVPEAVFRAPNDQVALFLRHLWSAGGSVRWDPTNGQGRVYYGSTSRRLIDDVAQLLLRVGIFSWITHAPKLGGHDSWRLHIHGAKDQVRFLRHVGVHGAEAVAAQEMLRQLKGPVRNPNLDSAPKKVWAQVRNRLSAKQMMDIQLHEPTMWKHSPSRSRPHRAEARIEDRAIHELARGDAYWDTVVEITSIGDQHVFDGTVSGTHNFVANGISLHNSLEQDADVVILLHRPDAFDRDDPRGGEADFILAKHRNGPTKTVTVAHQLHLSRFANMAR
# [7] = target: T3, DNA repair protein RAD52 homolog (Homo sapiens, UniProt P43351); type: functional, biochemical
# T3 sequence (P43351 whole entry): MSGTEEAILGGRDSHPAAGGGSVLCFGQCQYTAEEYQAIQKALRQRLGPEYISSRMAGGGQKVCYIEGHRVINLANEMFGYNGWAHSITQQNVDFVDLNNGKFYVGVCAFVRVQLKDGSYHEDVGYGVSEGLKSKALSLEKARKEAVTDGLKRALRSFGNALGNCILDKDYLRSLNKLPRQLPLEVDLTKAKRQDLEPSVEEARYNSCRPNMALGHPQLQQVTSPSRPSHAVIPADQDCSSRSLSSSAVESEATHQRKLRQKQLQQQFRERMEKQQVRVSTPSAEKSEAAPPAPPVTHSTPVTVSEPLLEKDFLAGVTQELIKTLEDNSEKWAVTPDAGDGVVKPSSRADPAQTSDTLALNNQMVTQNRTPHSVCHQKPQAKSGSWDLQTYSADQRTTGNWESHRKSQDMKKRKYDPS
# [8] = target: Voltage-dependent T-type calcium channel subunit alpha-1H (Homo sapiens, UniProt O95180); type: functional;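 note: channel activity triggered by adding a high calcium stimulation buffer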
# Voltage-dependent T-type calcium channel subunit alpha-1H, sequence (O95180 whole entry): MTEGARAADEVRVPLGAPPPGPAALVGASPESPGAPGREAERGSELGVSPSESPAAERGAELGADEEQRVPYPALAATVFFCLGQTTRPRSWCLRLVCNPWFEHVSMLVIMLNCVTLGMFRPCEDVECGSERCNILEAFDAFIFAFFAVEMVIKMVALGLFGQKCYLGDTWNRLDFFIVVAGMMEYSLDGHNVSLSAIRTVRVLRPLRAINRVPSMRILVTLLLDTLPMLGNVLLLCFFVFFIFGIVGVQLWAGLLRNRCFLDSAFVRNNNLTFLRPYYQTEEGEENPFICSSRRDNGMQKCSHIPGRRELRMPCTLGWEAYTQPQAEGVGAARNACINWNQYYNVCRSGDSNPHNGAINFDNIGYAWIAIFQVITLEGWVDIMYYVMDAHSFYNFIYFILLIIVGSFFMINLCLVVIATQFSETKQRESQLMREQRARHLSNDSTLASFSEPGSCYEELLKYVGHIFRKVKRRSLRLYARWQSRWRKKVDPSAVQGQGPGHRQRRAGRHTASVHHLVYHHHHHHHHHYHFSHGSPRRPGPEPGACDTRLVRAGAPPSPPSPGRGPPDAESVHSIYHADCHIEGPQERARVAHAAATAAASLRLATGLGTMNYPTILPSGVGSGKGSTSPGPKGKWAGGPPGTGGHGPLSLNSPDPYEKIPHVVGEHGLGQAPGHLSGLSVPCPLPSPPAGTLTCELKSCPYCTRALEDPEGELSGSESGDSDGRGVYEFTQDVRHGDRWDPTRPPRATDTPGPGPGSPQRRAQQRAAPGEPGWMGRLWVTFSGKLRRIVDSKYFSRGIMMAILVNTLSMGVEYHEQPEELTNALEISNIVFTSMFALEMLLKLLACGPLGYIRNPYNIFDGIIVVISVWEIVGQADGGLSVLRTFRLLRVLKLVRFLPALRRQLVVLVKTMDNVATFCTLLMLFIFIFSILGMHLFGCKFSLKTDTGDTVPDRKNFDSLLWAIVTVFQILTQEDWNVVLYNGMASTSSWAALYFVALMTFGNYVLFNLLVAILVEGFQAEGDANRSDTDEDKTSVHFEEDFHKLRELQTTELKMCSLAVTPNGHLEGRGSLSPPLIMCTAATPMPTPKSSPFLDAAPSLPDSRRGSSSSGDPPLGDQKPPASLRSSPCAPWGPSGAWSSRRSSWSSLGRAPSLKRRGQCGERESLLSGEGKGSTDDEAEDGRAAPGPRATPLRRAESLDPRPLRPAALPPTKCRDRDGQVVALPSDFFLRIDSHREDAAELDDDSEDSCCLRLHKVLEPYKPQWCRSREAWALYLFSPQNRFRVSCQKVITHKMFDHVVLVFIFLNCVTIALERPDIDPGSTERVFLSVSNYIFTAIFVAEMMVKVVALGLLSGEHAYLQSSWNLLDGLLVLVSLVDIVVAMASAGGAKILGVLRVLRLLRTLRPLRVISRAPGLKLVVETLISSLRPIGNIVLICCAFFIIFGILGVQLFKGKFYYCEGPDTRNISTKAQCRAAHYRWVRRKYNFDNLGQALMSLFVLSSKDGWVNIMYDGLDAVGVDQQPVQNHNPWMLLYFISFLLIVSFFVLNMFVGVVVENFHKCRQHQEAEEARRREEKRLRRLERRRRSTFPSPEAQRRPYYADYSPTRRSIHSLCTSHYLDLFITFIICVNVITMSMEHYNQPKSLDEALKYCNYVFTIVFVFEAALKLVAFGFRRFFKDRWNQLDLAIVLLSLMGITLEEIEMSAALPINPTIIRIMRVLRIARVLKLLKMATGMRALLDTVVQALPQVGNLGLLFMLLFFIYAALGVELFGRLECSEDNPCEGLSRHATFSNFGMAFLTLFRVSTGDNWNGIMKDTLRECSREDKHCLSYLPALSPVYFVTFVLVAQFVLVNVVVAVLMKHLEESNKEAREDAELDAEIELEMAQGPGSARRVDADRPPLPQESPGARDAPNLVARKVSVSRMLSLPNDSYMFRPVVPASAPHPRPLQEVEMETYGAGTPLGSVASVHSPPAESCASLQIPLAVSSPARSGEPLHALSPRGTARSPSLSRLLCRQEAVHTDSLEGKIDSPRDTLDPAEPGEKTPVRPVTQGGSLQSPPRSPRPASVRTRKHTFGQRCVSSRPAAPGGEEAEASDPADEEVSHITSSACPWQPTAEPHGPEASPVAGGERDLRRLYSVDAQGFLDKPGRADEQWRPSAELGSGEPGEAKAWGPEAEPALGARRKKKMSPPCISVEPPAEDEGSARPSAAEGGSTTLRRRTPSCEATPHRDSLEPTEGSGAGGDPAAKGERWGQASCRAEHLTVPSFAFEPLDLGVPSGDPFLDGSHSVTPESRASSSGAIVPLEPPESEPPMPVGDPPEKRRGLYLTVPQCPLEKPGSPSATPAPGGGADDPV
# [9] = microbe, parasite or virus in culture; type: functional; conditions: Mycobacterium tuberculosis
# [10] = system: Vero; assay: cells; type: functional; conditions: Chlorocebus sabaeus
# [11] = target: T4, Ubiquitin-conjugating enzyme E2 N (Homo sapiens, UniProt P61088); type: functional;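 note: Dose-response confirmation in a TR-FRET assay detecting UBC13-driven polyubiquitin chain formation, inhibition measured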
# T4 sequence (P61088 whole entry): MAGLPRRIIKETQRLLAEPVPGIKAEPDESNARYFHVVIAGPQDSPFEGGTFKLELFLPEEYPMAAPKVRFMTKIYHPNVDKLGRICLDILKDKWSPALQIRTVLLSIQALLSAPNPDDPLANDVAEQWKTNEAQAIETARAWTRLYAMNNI
# [12] = NIH3T3 cell viability loss – ATP luminescence, mouse fibroblasts, counter-screen, dose response (AID 2010); type: functional, cell-based; conditions: NIH3T3;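 note: cells exposed to compound for about 90 hours before reading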
# [13] = Trypanosoma cruzi growth suppression in host cells – NIH3T3 host cells, beta-gal luminescence, confirmation (AID 2044); type: functional, cell-based;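 note: intracellular parasites grown in NIH/3T3 mouse fibroblasts as host cells; luminescent beta-galactosidase reporter signal from transgenic T. cruzi replicating inside host cells; inhibitors lower the luminescence signal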
# [14] = target: T5, Rac GTPase-activating protein 1 (Homo sapiens, UniProt Q9H0H5); assay: blockers of MgcRacGAP-driven Rac1 GTP hydrolysis – biochemical, ADP Hunter fluorescence, primary and confirmatory, confirmation (AID 624330); type: functional
# T5 sequence (Q9H0H5 whole entry): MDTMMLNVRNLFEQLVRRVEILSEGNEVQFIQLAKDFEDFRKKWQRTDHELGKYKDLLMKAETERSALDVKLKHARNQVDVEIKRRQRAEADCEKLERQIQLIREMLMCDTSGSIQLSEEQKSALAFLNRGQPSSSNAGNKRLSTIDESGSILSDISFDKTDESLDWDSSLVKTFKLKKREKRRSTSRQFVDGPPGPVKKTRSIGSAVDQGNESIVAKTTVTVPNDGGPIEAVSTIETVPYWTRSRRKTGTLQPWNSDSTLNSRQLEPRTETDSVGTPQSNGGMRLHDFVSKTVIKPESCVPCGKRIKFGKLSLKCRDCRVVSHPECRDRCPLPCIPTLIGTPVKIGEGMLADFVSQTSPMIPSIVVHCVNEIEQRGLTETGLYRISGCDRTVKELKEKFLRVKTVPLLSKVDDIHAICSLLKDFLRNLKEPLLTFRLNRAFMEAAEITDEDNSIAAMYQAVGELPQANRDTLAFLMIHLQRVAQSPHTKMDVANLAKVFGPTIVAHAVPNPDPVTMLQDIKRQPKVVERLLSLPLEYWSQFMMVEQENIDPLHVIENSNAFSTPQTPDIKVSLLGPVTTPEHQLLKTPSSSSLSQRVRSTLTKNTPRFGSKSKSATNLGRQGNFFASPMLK
# [15] = target: Induced myeloid leukemia cell differentiation protein Mcl-1 (Homo sapiens, UniProt Q07820); type: functional
# Induced myeloid leukemia cell differentiation protein Mcl-1, sequence (Q07820 whole entry): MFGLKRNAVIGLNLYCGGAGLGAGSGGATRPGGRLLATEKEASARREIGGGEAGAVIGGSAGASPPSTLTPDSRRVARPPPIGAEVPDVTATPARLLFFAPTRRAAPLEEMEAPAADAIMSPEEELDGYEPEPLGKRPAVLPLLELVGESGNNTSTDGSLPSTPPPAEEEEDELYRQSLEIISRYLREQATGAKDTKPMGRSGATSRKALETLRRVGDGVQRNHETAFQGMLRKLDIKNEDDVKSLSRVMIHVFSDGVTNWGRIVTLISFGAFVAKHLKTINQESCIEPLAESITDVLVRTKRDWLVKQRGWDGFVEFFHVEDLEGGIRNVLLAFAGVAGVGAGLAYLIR
# [16] = Luminescence Cell-Based Dose Retest to Confirm Inhibitors of Cancer Stem Cells. [Related pubchem assays (depositor defined):AID2717, AID2721]; type: functional, Homo sapiens; conditions: Homo sapiens
# [17] = blockers of HIV-1 envelope-mediated cell-cell fusion – cherry-pick, dose response (AID 652057); type: functional, cell-based
# [18] = system: HEK293; assay: cells; type: functional, cell-based; conditions: Homo sapiens
# [19] = system: HEK293; assay: NOD2 signaling inhibitors in MDP-stimulated cells, cell-based, uHTS, luminescence (AID 2001); type: functional; conditions: Homo sapiens
# [20] = system: HEK293; assay: cells; type: functional, cell-based; conditions: Homo sapiens; remark: listed apart in the source
# [21] = fluconazole-exposed Candida albicans growth modulators – fluorescence, retest, confirmation (AID 2467); type: functional, cell-based
# [22] = NIH-3T3 fibroblast cytotoxicity, dose response, cytotoxicity control, cell-based, fluorescence, Alamar Blue, secondary assay (AID 2327); type: functional;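 note: NIH-3T3 mouse fibroblasts cultured with fluconazole at 8 µg/mL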
# [23] = system: HEK293; assay: inhibition of NOD1-driven NF-kB reporter – cell-based, luminescence, uHTS, primary screen (AID 1578); type: functional; conditions: Homo sapiens
# [24] = system: INS1; assay: INS-1E survival protection against cytokine death – cell-based, luminescence, retest, dose response (AID 449756); type: functional; conditions: Rattus norvegicus;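 note: cell death triggered by IL-1 beta plus TNF-alpha plus IFN-gamma mixture; protective hits raise ATP signal compared with cytokine alone wells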
smiles,measurement,setting,value
CSC1CCCCC1(O)CSc1nc2c(cc1C#N)CCCC2 (stereo not given),EC50,[1],14.1 µM (active)
same,EC50,[2],22.3 µM (active)
same,IC50,[3],> 80 µM (inactive)
same,EC50,[4],> 120 µM (not active)
CCN(CCN(C)C)C(=O)c1ccc2c(c1NCCO)C(=O)c1ccccc1C2=O,EC50,[5],< 0.018 µM (active)
same,AC50,[6],0.0471 µM (active)
same,AC50,[7],6.06 µM (active)
COc1ccc(NC(=O)c2nnn(Cc3cccc(F)c3)c2N)c(OC)c1,IC50,[3],> 80 µM (inactive)
Cc1ccc(-c2nnn(CC(=O)N3CCCc4ccccc43)n2)cc1,EC50,[8],3.43 µM (active)
C=CCOc1ccc(C2C(C#N)=C(N)N(Nc3ccccc3)C3=C2C(=O)CC(C)(C)C3)cc1OC (stereo not given),CC50,[9],35.8 µM (active)
CC(C)Cn1c(SCC(=O)c2ccc(Cl)s2)nnc1-c1ccco1,CC50,[10],> 25 µM (active)
same,EC50,[8],10.6 µM (active)
CCN(CC)CCNc1ncnc2c1sc1nc(N3CCOCC3)c3c(c12)CCCC3,IC50,[11],> 20 µM (inactive)
same,AC50,[7],4.88 µM (active)
CNC(=O)c1ccccc1NC(=O)c1cccc(S(=O)(=O)N2CCC(C)CC2)c1,IC50,[11],> 20 µM (inactive)
CC/C(NCc1ccc2c(c1)OCO2)=C1/C(=O)NC(=O)N(C2CCCCC2)C1=O,EC50,[8],5.15 µM (active)
Cc1c(C(=O)NCC2COc3ccccc3O2)oc2ccc(S(=O)(=O)N(C)C3CCCCC3)cc12 (stereo not given),EC50,[8],5.64 µM (active)
same,EC50,[12],> 60 µM (not active)
same,EC50,[13],1.89 µM (active)
FC(F)(F)c1cc(CO[C@@H]2CCCN[C@@H]2c2ccccc2)cc(C(F)(F)F)c1,CC50,[9],24.2 µM (active)
same,IC50,[11],> 20 µM (inactive)
CCN(CC)CCOCCOc1ccc(Cl)c2ccccc12,CC50,[10],> 25 µM (active)
CN(C)c1ccc(C(c2nnnn2CCOC(=O)Nc2ccc(Cl)cc2)N2CCOCC2)cc1 (stereo not given),EC50,[8],9.17 µM (active)
CN1CCN(c2ccc(N)c(N3CCN(C)CC3)c2)CC1,IC50,[11],> 20 µM (inactive)
same,IC50,[14],33.3 µM (active)
COc1ccccc1OCC(=O)N(Cc1nc(-c2ccccc2)no1)C1CCCCC1,EC50,[8],5.55 µM (active)
CC1Cc2ccccc2N1S(=O)(=O)c1cnc(Cl)c(Br)c1 (stereo not given),IC50,[3],69.3 µM (inactive)
COc1ccc(C(=O)Nc2ccccc2C(=O)NCc2ccco2)cc1OC,IC50,[3],> 80 µM (inactive)
O=[N+]([O-])c1ccc2c(c1)=[N+]([O-])C1(CCCCC1)[N+]=2[O-],IC50,[15],4.85 µM (active)
CSc1ccc(C(=O)/C=C/c2ccc(N)cc2)cc1,CC50,[10],18.7 µM (active)
CC(C)C[C@H](NC(=O)c1[nH]cnc1C(=O)NC(c1ccccc1)c1ccccc1)C(=O)OC(C)(C)C,CC50,[10],19.3 µM (active)
same,AC50,[16],3.44 µM (active)
COc1ccccc1/C=C1\SC(=S)N(CCC(=O)Nc2nnc(C)s2)C1=O,IC50,[3],> 80 µM (inactive)
COc1ccccc1NC(=O)CNC(=O)CC12CC3CC(CC(C3)C1)C2,IC50,[11],> 20 µM (inactive)
COC(=O)/C=C\C(C#N)(C#N)N=Cc1ccc(OC)cc1,CC50,[10],> 25 µM (active)
c1ccc(C[C@H]2CN=C(Nc3ccccc3)N2CCCC2CCCCC2)cc1,IC50,[11],> 20 µM (inactive)
O=C(Nc1nc2ccccc2s1)C1CC(=O)N(c2ccccc2)C1 (stereo not given),EC50,[8],8.11 µM (active)
CN(C)CCCOc1ccc(-c2cc3nc(NCc4cccnc4)n(C)c(=O)c3s2)cn1,AC50,[7],11.2 µM (active)
CCC(=O)N(C)C[C@H]1Oc2cc(/C=C/c3ccccc3)ccc2S(=O)(=O)N([C@@H](C)CO)C[C@H]1C,AC50,[17],20.7 µM (active)
CC(C)(C)NC(=S)N/N=C/c1cc(Br)c(O)c(Br)c1,IC50,[18],> 20 µM (inactive)
same,IC50,[19],16.9 µM (inactive)
same,IC50,[20],> 20 µM (inactive)
same,EC50,[21],2.86 µM (active)
same,EC50,[22],32.2 µM (active)
same,EC50,[23],5.75 µM (active)
C/C(=N\NC(=O)c1nnn(-c2nonc2N)c1CN(C)c1ccccc1)c1ccccn1,CC50,[9],2.43 µM (active)
Cc1ccc(-c2cn3c([n+]2-c2ccccc2)SCC3)cc1,AC50,[24],3.11 µM (active)
same,EC50,[12],> 60 µM (not active)
same,IC50,[3],> 80 µM (inactive)
same,EC50,[13],0.282 µM (active)
